Like-named read-outs stand apart in the source and are kept apart here.
Legend:
OT receptors = OT receptors (Homo sapiens (Human), UniProt P30559); assay: Activity assay in the agonistic mode, OT receptors; type: biochemical
V1a = V1a (Homo sapiens (Human), UniProt P37288); assay: Activity assay in the agonistic mode, V1a; type: biochemical
[1] = In vitro human liver microsomal (HLM) stability assay; details: for Half-life: human liver microsomes, first order kinetics; for % Compound Remaining (Mean): 0.1 μM compound, human liver microsomes 0.1007 mg/ml
Procedure: (§1) Liver microsomal stability assays are conducted with human liver microsomes at a final liver microsomal protein concentration of 0.1007 mg per ml. Test compounds are prepared as solutions in 0.01% DMSO, 0.25% acetonitril and 0.25% methanol. The test compound is added to the reaction mixture at a final concentration of 0.1 μM and pre-incubated with pooled liver microsomes in phosphate buffer (pH 7.4) for 10 min on plate shaker in a 37° C. incubator. The reaction is initiated by adding a NADPH-generating system and incubated for 0, 15, 30, 45, and 60 min. The reaction is stopped by transferring the incubation mixture to Stop Buffer solvent (acetonitrile/methanol). Samples are then mixed and centrifuged. The supernatant samples are loaded onto the LC/MS/MS for analysis. Samples are analyzed by LC/MS/MS using multiple reaction monitoring (MRM). The UPLC system consists of a binary LC pump with autosampler, a C-18 column, and a gradient.
(§2) Four reference compounds are tested in each assay (Propranolol, imipramine, verapamil and terfenadine).
(§3) For data analysis, peak areas corresponding to the test compound are recorded. The compound remaining is calculated by comparing the peak area at each time point to time zero. The half-life is calculated from the slope of the initial linear range of the logarithmic curve of compound remaining (%) vs. time, assuming first order kinetics.

V2 = V2 (Homo sapiens (Human), UniProt P30518); assay: Activity assay in the agonistic mode, V2; type: biochemical
Sequence of V2 (P30518 whole entry): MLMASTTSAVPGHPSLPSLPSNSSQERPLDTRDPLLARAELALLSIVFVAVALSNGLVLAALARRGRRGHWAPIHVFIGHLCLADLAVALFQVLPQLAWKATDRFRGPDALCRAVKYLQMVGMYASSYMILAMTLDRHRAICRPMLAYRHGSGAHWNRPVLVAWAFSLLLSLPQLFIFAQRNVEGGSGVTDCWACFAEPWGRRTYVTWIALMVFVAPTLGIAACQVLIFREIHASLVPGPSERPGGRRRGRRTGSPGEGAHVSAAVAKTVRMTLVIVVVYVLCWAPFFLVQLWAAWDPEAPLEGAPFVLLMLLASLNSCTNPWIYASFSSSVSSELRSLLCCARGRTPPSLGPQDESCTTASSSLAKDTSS

in vitro = details: human, microsomes, pH 7.4
Procedure: as §1, §2, §3

[2] = human, microsomes, 0.1 μM, pH 7.4
Procedure: as §1, §2, §3

[3] = 10 mg/kg p.o.; cited from earlier work

Sequence of OT receptors (P30559 whole entry): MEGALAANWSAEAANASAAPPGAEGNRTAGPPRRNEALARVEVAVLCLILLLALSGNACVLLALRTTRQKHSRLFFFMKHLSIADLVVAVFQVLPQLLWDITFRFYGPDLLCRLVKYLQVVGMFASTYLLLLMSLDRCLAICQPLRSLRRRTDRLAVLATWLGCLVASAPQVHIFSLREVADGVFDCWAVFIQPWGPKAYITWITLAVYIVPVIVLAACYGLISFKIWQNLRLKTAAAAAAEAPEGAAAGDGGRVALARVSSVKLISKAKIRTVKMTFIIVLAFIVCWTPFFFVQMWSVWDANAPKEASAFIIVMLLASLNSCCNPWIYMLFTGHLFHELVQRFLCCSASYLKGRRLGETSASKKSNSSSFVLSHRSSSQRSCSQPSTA
Sequence of V1a (P37288 whole entry): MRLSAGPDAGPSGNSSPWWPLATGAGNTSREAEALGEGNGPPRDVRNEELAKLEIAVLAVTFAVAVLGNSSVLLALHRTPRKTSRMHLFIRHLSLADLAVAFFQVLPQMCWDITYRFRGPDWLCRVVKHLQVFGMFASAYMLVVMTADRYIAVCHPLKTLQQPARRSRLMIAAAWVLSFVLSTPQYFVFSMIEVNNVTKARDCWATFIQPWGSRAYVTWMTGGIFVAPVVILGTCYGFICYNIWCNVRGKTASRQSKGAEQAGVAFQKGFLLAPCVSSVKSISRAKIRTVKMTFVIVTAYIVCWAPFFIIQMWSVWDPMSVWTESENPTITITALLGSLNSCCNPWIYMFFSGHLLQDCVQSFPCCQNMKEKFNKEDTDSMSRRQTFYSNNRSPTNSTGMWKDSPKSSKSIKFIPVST

Structure (SMILES): [2H]C([2H])([2H])N(C(=O)[C@@H]1C[C@@H](O)CN1[C@]1(c2ccccc2OC)C(=O)N(S(=O)(=O)c2ccc(OC)cc2OC)c2ccc(Cl)cc21)C([2H])([2H])[2H] [Example 1, (2S,4R)1-[(3R)-5-chloro-1-[(2,4-dimethoxyphenyl)sulfonyl]-2,3-dihydro-3-(2-methoxyphenyl)-2-oxo-1H-indol-3-yl]-4-hydroxy-N,N-dimethyl-d6-2-pyrrolidinecarboxamide]
- activity in the agonistic mode in comparison to undeuterated nelivaptan (OT receptors): no significant difference
- activity in the agonistic mode in comparison to undeuterated nelivaptan (V1a): no significant difference
- Half-life [1]: 4.7 min
- % Compound Remaining (Mean) ([1]; incubation 0 min): 100.0%
- % Compound Remaining (Mean) ([1]; incubation 15 min): 14.3%
- % Compound Remaining (Mean) ([1]; incubation 30 min): 1.2%
- % Compound Remaining (Mean) ([1]; incubation 45 min): 0.1%
- % Compound Remaining (Mean) ([1]; incubation 60 min): 0.03%
- activity in the agonistic mode in comparison to undeuterated nelivaptan (V2): no significant difference

Structure (SMILES): [2H]C([2H])([2H])Oc1ccccc1[C@@]1(N2C[C@H](O)C[C@H]2C(=O)N(C)C)C(=O)N(S(=O)(=O)c2ccc(OC)cc2OC)c2ccc(Cl)cc21 [Example 2, (2S,4R)1-[(3R)-5-chloro-1-[(2,4-dimethoxyphenyl)sulfonyl]-2,3-dihydro-3-(2-methoxy-d3-phenyl)-2-oxo-1H-indol-3-yl]-4-hydroxy-N,N-dimethyl-2-pyrrolidinecarboxamide]
- half-life at 0.1 μM (in vitro): 4.1 min
- activity in the agonistic mode in comparison to undeuterated nelivaptan (OT receptors): no significant difference
- activity in the agonistic mode in comparison to undeuterated nelivaptan (V1a): no significant difference
- % Compound Remaining (Mean) ([2]; 0 h): 100.0%
- % Compound Remaining (Mean) ([2]; 0.25 h): 7.7%
- % Compound Remaining (Mean) ([2]; 0.5 h): 0.4%
- % Compound Remaining (Mean) ([2]; 0.75 h): 0.1%
- % Compound Remaining (Mean) ([2]; 1 h): 0.02%
- activity in the agonistic mode in comparison to undeuterated nelivaptan (V2): no significant difference

Structure (SMILES): [2H]C([2H])([2H])Oc1ccc(S(=O)(=O)N2C(=O)[C@@](c3ccccc3OC([2H])([2H])[2H])(N3C[C@H](O)C[C@H]3C(=O)N(C([2H])([2H])[2H])C([2H])([2H])[2H])c3cc(Cl)ccc32)c(OC([2H])([2H])[2H])c1 [Example 3, (2S,4R)1-[(3R)-5-chloro-1-[(2,4-dimeth-d6-oxyphenyl)sulfonyl]-2,3-dihydro-3-(2-methoxy-d3-phenyl)-2-oxo-1H-indol-3-yl]-4-hydroxy-N,N-dimethyl-d6-2-pyrrolidinecarboxamide]
- activity in the agonistic mode in comparison to undeuterated nelivaptan (OT receptors): no significant difference
- activity in the agonistic mode in comparison to undeuterated nelivaptan (V1a): no significant difference
- Half-life [1]: 6.2 min
- % Compound Remaining (Mean) ([1]; incubation 0 min): 100%
- % Compound Remaining (Mean) ([1]; incubation 15 min): 5.40%
- % Compound Remaining (Mean) ([1]; incubation 30 min): 0.39%
- % Compound Remaining (Mean) ([1]; incubation 45 min): 0.15%
- % Compound Remaining (Mean) ([1]; incubation 60 min): 0.13%
- activity in the agonistic mode in comparison to undeuterated nelivaptan (V2): no significant difference

Structure (SMILES): COc1ccc(S(=O)(=O)N2C(=O)[C@@](c3ccccc3OC)(N3C[C@H](O)C[C@H]3C(=O)N(C)C)c3cc(Cl)ccc32)c(OC)c1 [Nelivaptan, (2S,4R)-1-[(3R)-5-chloro-1-(2,4-dimethoxyphenyl)sulfonyl-3-(2-methoxyphenyl)-2-oxoindol-3-yl]-4-hydroxy-N,N-dimethylpyrrolidine-2-carboxamide, reference compound]
- half-life at 0.1 μM (in vitro): 3.2 min
- % Compound Remaining (Mean) ([2]; 0 h): 100.0%
- % Compound Remaining (Mean) ([2]; 0.25 h): 3.8%
- % Compound Remaining (Mean) ([2]; 0.5 h): 0.4%
- % Compound Remaining (Mean) ([2]; 0.75 h): 0.1%
- % Compound Remaining (Mean) ([2]; 1 h): 0.03%
- duration of action [3]: > 4 h

Source: patent US20250034117A1, “Deuterated 1,3 Dihydro -2H-indole-2-one derivatives” (HMNC Holding GmbH, priority 2023, published 2025)
